Among the data in ChEMBL document CHEMBL1134029, “Heterocyclic derivatives of 2-(3,5-dimethylphenyl)tryptamine as GnRH receptor antagonists” (Bioorg Med Chem Lett, 2001) are IC50 values, retold here.

The structures appear in SMILES notation.

The first assay deals with T1, Gonadotropin-releasing hormone receptor (Homo sapiens, UniProt P30968).
T1 sequence (P30968 whole entry): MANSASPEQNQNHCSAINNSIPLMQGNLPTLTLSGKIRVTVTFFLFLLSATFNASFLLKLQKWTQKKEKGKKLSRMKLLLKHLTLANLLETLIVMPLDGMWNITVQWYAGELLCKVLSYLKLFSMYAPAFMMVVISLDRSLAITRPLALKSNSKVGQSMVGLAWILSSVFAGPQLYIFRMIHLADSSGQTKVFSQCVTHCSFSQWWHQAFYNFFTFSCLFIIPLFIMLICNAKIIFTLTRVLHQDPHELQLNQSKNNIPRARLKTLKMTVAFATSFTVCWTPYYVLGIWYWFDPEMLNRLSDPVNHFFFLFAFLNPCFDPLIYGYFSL
Put plainly: Inhibitory activity evaluated against human Gonadotropin-releasing hormone receptor.
`Cc1cc(C)cc(-c2[nH]c3ccccc3c2CCNCCCCc2ccc(NS(C)(=O)=O)cc2)c1` yielded an IC50 of 0.17 µM. `Cc1cc(C)cc(-c2[nH]c3ccccc3c2CCNCCCCc2ccc(O)cc2)c1` registered an IC50 of 0.357 µM.

The next assay addresses T2, Gonadotropin-releasing hormone receptor (Rattus norvegicus, UniProt P30969).
T2 sequence (P30969 whole entry): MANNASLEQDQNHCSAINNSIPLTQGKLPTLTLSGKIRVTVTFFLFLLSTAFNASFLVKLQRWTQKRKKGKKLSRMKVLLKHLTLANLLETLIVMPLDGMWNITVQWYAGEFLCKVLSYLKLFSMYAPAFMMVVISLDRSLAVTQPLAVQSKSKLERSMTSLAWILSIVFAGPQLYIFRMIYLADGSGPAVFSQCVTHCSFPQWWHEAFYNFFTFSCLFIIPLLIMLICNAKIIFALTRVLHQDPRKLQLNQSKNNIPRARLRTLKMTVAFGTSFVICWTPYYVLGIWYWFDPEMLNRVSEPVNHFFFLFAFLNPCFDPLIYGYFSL
Put plainly: Inhibition of rat gonadotropin-releasing hormone receptor.
The compound `Cc1cc(C)cc(-c2[nH]c3ccccc3c2CCNCCCCc2ccc(NS(C)(=O)=O)nc2)c1` came in with an IC50 of 0.045 µM.

The compound `Cc1cc(C)cc(-c2[nH]c3ccccc3c2CCNCCCCc2cncnc2)c1` showed an IC50 of 0.27 µM. In turn, `Cc1cc(C)cc(-c2[nH]c3ccccc3c2CCNCCc2cccnc2)c1` gave an IC50 of 0.2 µM. The IC50 values of the last two compounds are within 1.5-fold of each other. `Cc1cc(C)cc(-c2[nH]c3ccccc3c2CCNCCCc2ccncc2)c1` displayed an IC50 of 0.21 µM. The IC50 values of the last two compounds are within 1.5-fold of each other. The same measure, in the same setting: to `Cc1cc(C)cc(-c2[nH]c3ccccc3c2CCNCCCCc2cnc3ccccc3c2)c1` belongs 0.036 µM; to `Cc1cc(C)cc(-c2[nH]c3ccccc3c2CCNCCCc2cccnc2)c1`, 0.2 µM; to `CC(=O)Nc1ccc(CCCCNCCc2c(-c3cc(C)cc(C)c3)[nH]c3ccccc23)cn1`, 0.12 µM.

`Cc1cc(C)cc(-c2[nH]c3ccccc3c2CCNCCCCc2ccc3c(n2)NCCC3)c1` had an IC50 of 1.26 µM. Turning to `Cc1cc(C)cc(-c2[nH]c3ccccc3c2CCNCCc2ccncc2)c1`, the IC50 was 0.16 µM. Compared with the last compound, the IC50 is about 7.9-fold lower.

Compound `Cc1cc(C)cc(-c2[nH]c3ccccc3c2CCNCCCCc2ccncc2)c1` had an IC50 of 0.016 µM. On the same count and under the same terms, to `Cc1cc(C)cc(-c2[nH]c3ccccc3c2CCNCc2ccncc2)c1` belongs 9 µM; to `Cc1cc(C)cc(-c2[nH]c3ccccc3c2CCNCc2ccccn2)c1`, > 10 µM; to `Cc1cc(C)cc(-c2[nH]c3ccccc3c2CCNCCCCc2ccc(N)nc2)c1`, 0.041 µM. The same measure, in the same setting: to `Cc1cc(C)cc(-c2[nH]c3ccccc3c2CCNCc2cccnc2)c1` belongs 4.5 µM; to `Cc1cc(C)cc(-c2[nH]c3ccccc3c2CCNCCCCc2cccnc2)c1`, 0.04 µM. On the same count and under the same terms, to `Cc1cc(C)cc(-c2[nH]c3ccccc3c2CCNCCCCc2ccc(NS(C)(=O)=O)cc2)c1` belongs 0.007 µM; to `Cc1cc(C)cc(-c2[nH]c3ccccc3c2CCNCCCCc2ccccn2)c1`, 0.45 µM; to `Cc1cc(C)cc(-c2[nH]c3ccccc3c2CCNCCCCCc2ccncc2)c1`, 0.15 µM.

As for `Cc1cc(C)cc(-c2[nH]c3ccccc3c2CCNCCc2ccccn2)c1`, inhibition was half-maximal at 2.17 µM (IC50). The same measure, in the same setting: to `Cc1cc(C)cc(-c2[nH]c3ccccc3c2CCNCCCCCc2cccnc2)c1` belongs 0.05 µM; to `Cc1cc(C)cc(-c2[nH]c3ccccc3c2CCNCCCCc2ccc(=O)[nH]c2)c1`, 0.057 µM.

As for `Cc1cc(C)cc(-c2[nH]c3ccccc3c2CCNCCCCc2ccc(O)cc2)c1`, the IC50 came to 0.027 µM. Same read-out and setting: to `COc1ccc(CCCCNCCc2c(-c3cc(C)cc(C)c3)[nH]c3ccccc23)cn1` belongs 0.09 µM. Still for that read-out and setting: to `Cc1cc(C)cc(-c2[nH]c3ccccc3c2CCNCCCCc2cnc[nH]2)c1` belongs 0.45 µM.
